In experiment [1] the test system is Cabbage Looper (Trichoplusia ni, TRIPNI). The experiment can be described thus: Bioassay on Cabbage Looper (CL), 128-well diet tray assay. The format is in vivo. The note with it: Trichoplusia ni. The method, boiled down: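 Mortality of second instar larvae exposed to diet coated with 50 μg/cm^2 compound (acetone-water 90:10 vehicle, dried); 25° C., 5–7 days.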

Experiment [2] deals with Beet Armyworm (Spodoptera exigua, LAPHEG). The experiment in a line: Bioassay on Beet Armyworm (BAW), 128-well diet tray assay. Format: in vivo. The essentials: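 In a 128-well format, eight wells per compound received a surface dose of 50 μg/cm^2 on artificial diet. After drying, each well got one to five second instar larvae, held at 25° C. with 14:10 photoperiod. Mortality percentages after five to seven days were averaged.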

[3] abbreviates: Species CL (Cabbage Looper), read-out: CL (Biological Results, rating).
[4] abbreviates: Species BAW (Beet Armyworm), read-out: BAW (Biological Results, rating).
Setting [5] is: Cabbage Looper, 128-well diet tray assay, read-out: CL rating.
Setting [6] is: Beet Armyworm, 128-well diet tray assay, read-out: BAW rating.

Where two headings read alike, the source gives them in different places.

Consider `CN(C(=S)c1cc(NC(=O)[C@H]2[C@H](c3cc(Cl)cc(Cl)c3)C2(Cl)Cl)ccc1Cl)c1ccc(F)cc1` (relative stereo) [F112, trans-2,2-Dichloro-N-(4-chloro-3-((4-fluorophenyl)(methyl)carbamothioyl)phenyl)-3-(3,5-dichlorophenyl)cyclopropane-1-carboxamide], for which the pest or weed control at 50 µg/cm2 in experiment [1] (setting [3]) and in experiment [2] (setting [4]) was 50 to 100% throughout.
For `Nc1c(F)ccc(NC(=O)c2cc(NC(=O)C3C(c4cc(Cl)c(Cl)c(Br)c4)C3(Cl)Cl)ccc2Cl)c1F` (stereo not drawn) [F621, N-(3-Amino-2,4-difluorophenyl)-5-(3-trans-(3-bromo-4,5-dichlorophenyl)-2,2-dichlorocyclopropane-1-carboxamido)-2-chlorobenzamide], the pest or weed control at 50 µg/cm2 in experiment [1] (setting [5]) and in experiment [2] (setting [6]) was 50 to 100% throughout.
Take `O=C(Nc1ncncc1F)c1cc(NC(=O)[C@H]2[C@H](c3cc(Cl)cc(Cl)c3)C2(Cl)Cl)ccc1Cl` (relative stereo) [F318, trans-2-Chloro-5-(2,2-dichloro-3-(3,5-dichlorophenyl)cyclopropane-1-carboxamido)-N-(5-fluoropyrimidin-4-yl)benzamide]: the pest or weed control at 50 µg/cm2 in experiment [1] (setting [3]) and in experiment [2] (setting [4]) was 50 to 100% in each case.
For the compound `N#Cc1ccc(NC(=O)c2cc(NC(=O)[C@H]3[C@H](c4cc(Cl)cc(Cl)c4)C3(Cl)Cl)ccc2F)c(F)c1` (relative stereo) [F93, trans-N-(4-Cyano-2-fluorophenyl)-5-(2,2-dichloro-3-(3,5-dichlorophenyl)cyclopropane-1-carboxamido)-2-fluorobenzamide], the pest or weed control at 50 µg/cm2 in experiment [1] (setting [3]) and in experiment [2] (setting [4]) was 50 to 100% throughout.
Turning to `O=C(Nc1ccc(C(F)(F)F)cc1)c1cc(NC(=O)[C@H]2[C@H](c3cc(Cl)cc(Cl)c3)C2(Cl)Cl)ccc1Cl` (relative stereo) [F6, trans-2-Chloro-5-(2,2-dichloro-3-(3,5-dichlorophenyl)cyclopropane-1-carboxamido)-N-(4-(trifluoromethyl)phenyl)benzamide], the pest or weed control at 50 µg/cm2 in experiment [1] (setting [3]) and in experiment [2] (setting [4]) was 50 to 100% in each case.
For `O=C(Nc1cc(C(F)(F)F)[nH]n1)c1cc(NC(=O)[C@H]2[C@H](c3cc(Cl)cc(Cl)c3)C2(Cl)Cl)ccc1Cl` (relative stereo) [PF138, trans-2-Chloro-5-(2,2-dichloro-3-(3,5-dichlorophenyl)cyclopropane-1-carboxamido)-N-(5-(trifluoromethyl)-1H-pyrazol-3-yl)benzamide], the pest or weed control at 50 µg/cm2 in experiment [1] (setting [5]) and in experiment [2] (setting [6]) was 50 to 100% throughout.
Turning to `CN(C(=O)c1cc(NC(=O)[C@H]2[C@H](c3ccccc3)C2(Cl)Cl)ccc1Cl)c1ccc(F)cc1` (relative stereo) [F110, trans-2-Chloro-5-(2,2-dichloro-3-phenylcyclopropane-1-carboxamido)-N-(4-fluorophenyl)-N-methylbenzamide], the pest or weed control at 50 µg/cm2 in experiment [1] (setting [3]) and in experiment [2] (setting [4]) was 50 to 100% each time.
Take `N#Cc1cc(F)ccc1NC(=O)c1cc(NC(=O)[C@H]2[C@H](c3ccc(F)c(Cl)c3)C2(Cl)Cl)ccc1Cl` (relative stereo) [F192, trans-2-Chloro-N-(2-cyano-4-fluorophenyl)-5-(2,2-dichloro-3-(3-chloro-4-fluorophenyl)cyclopropane-1-carboxamido)benzamide]: the pest or weed control at 50 µg/cm2 in experiment [1] (setting [3]) and in experiment [2] (setting [4]) was 50 to 100% each time.
Regarding `Cc1ccc(-c2csc(NC(=O)c3cc(NC(=O)[C@H]4[C@H](c5cc(Cl)cc(Cl)c5)C4(Cl)Cl)ccc3Cl)n2)cc1` (relative stereo) [PF136, trans-2-Chloro-5-(2,2-dichloro-3-(3,5-dichlorophenyl)cyclopropane-1-carboxamido)-N-(4-(p-tolyl)thiazol-2-yl)benzamide], the pest or weed control at 50 µg/cm2 in experiment [1] (setting [5]) and in experiment [2] (setting [6]) was 50 to 100% in each case.
As for `O=C(Nc1c(F)cccc1F)c1cc(NC(=O)C2C(c3cc(Cl)cc(Cl)c3)C2(Cl)Br)ccc1Cl` (stereo not drawn) [F168, 5-(trans)-2-Bromo-2-chloro-3-(3,5-dichlorophenyl)cyclopropane-1-carboxamido)-2-chloro-N-(2,6-difluorophenyl)benzamide], the pest or weed control at 50 µg/cm2 in experiment [1] (setting [3]) and in experiment [2] (setting [4]) was 50 to 100% in each case.
For the compound `Nc1c(F)ccc(NC(=O)c2cc(NC(=O)C3C(c4cc(F)cc(Br)c4)C3(Cl)Cl)ccc2Cl)c1F` (stereo not drawn) [F622, N-(3-Amino-2,4-difluorophenyl)-5-(3-trans-(3-bromo-5-fluorophenyl)-2,2-dichlorocyclopropane-1-carboxamido)-2-chlorobenzamide], the pest or weed control at 50 µg/cm2 in experiment [1] (setting [5]) and in experiment [2] (setting [6]) was 50 to 100% in each case.
Take `O=C(Cc1ccccc1)Nc1ccc(NC(=O)c2cc(NC(=O)[C@H]3[C@H](c4cc(Cl)cc(Cl)c4)C3(Cl)Cl)ccc2Cl)cc1` (relative stereo) [PF28, trans-2-Chloro-5-(2,2-dichloro-3-(3,5-dichlorophenyl)cyclopropane-1-carboxamido)-N-(4-(2-phenylacetamido)phenyl)benzamide]: the pest or weed control at 50 µg/cm2 in experiment [1] (setting [5]) and in experiment [2] (setting [6]) was 50 to 100% in each case.
As to `Nc1c(F)ccc(NC(=O)c2cc(NC(=O)[C@H]3[C@H](c4ccc(Cl)c(Br)c4)C3(Cl)Cl)ccc2Cl)c1F` (relative stereo) [F338, N-(3-Amino-2,4-difluorophenyl)-5-(trans-3-(3-bromo-4-chlorophenyl)-2,2-dichlorocyclopropane-1-carboxamido)-2-chlorobenzamide], the pest or weed control at 50 µg/cm2 in experiment [1] (setting [3]) and in experiment [2] (setting [4]) was 50 to 100% each time.
In the case of `Nc1ccc([C@H]2[C@H](C(=O)Nc3ccc(Cl)c(C(=O)Nc4ccc(F)cc4)c3)C2(Cl)Cl)cc1` (relative stereo) [F425, 5-(trans-3-(4-aminophenyl)-2,2-dichlorocyclopropane-1-carboxamido)-2-chloro-N-(4-fluorophenyl)benzamide], the pest or weed control at 50 µg/cm2 in experiment [1] (setting [5]) and in experiment [2] (setting [6]) was 50 to 100% each time.
Regarding `COc1ccc([C@H]2[C@H](C(=O)Nc3ccc(Cl)c(C(=O)Nc4ccc(F)cc4)c3)C2(Cl)Cl)cc1` (relative stereo) [PF65, trans-2-Chloro-5-(2,2-dichloro-3-(4-methoxyphenyl)cyclopropane-1-carboxamido)-N-(4-fluorophenyl)benzamide], the pest or weed control at 50 µg/cm2 in experiment [1] (setting [5]) and in experiment [2] (setting [6]) was 50 to 100% throughout.
In the case of `O=C(Nc1c(F)cccc1F)c1cc(NC(=O)[C@H]2[C@H](c3cc(Cl)cc(C(F)(F)F)c3)C2(Cl)Cl)ccc1Cl` (relative stereo) [F89, trans-2-Chloro-5-(2,2-dichloro-3-(3-chloro-5-(trifluoromethyl)phenyl)cyclopropane-1-carboxamido)-N-(2,6-difluorophenyl)benzamide], the pest or weed control at 50 µg/cm2 in experiment [1] (setting [3]) and in experiment [2] (setting [4]) was 50 to 100% each time.
Turning to `O=C(Nc1c(F)cccc1F)c1cc(NC(=O)[C@H]2[C@H](c3cc(Cl)c(F)c(Cl)c3)C2(Cl)Cl)ccc1Cl` (relative stereo) [F98, trans-2-Chloro-5-(2,2-dichloro-3-(3,5-dichloro-4-fluorophenyl)cyclopropane-1-carboxamido)-N-(2,6-difluorophenyl)benzamide], the pest or weed control at 50 µg/cm2 in experiment [1] (setting [3]) and in experiment [2] (setting [4]) was 50 to 100% throughout.
As for `Nc1c(F)ccc(NC(=O)c2cc(NC(=O)C3C(c4ccc(F)c(C(F)(F)F)c4)C3(Cl)Cl)ccc2Cl)c1F` (stereo not drawn) [F624, N-(3-Amino-2,4-difluorophenyl)-2-chloro-5-(2,2-dichloro-3-trans-(4-fluoro-3-(trifluoromethyl)phenyl)cyclopropane-1-carboxamido)benzamide], the pest or weed control at 50 µg/cm2 in experiment [1] (setting [5]) and in experiment [2] (setting [6]) was 50 to 100% in each case.
`O=C(Nc1ccc(F)cc1)c1cc(NC(=O)[C@H]2[C@H](c3ccc(Cl)c(F)c3)C2(Cl)Cl)ccc1Cl` (relative stereo) [PF34, trans-2-Chloro-5-(2,2-dichloro-3-(4-chloro-3-fluorophenyl)cyclopropane-1-carboxamido)-N-(4-fluorophenyl)benzamide]: the pest or weed control at 50 µg/cm2 in experiment [1] (setting [5]) and in experiment [2] (setting [6]) was 50 to 100% in each case.
Consider `O=C(Nc1cc[n+]([O-])cc1)c1cc(NC(=O)[C@H]2[C@H](c3cc(Cl)cc(Cl)c3)C2(Cl)Cl)ccc1Cl` (relative stereo) [F140, trans-4-(2-Chloro-5-(2,2-dichloro-3-(3,5-dichlorophenyl)cyclopropane-1-carboxamido)benzamido)pyridine 1-oxide], for which the pest or weed control at 50 µg/cm2 in experiment [1] (setting [3]) and in experiment [2] (setting [4]) was 50 to 100% in each case.
`O=C(Nc1nc(C(F)(F)F)cs1)c1cc(NC(=O)[C@H]2[C@H](c3cc(Cl)cc(Cl)c3)C2(Cl)Cl)ccc1Cl` (relative stereo) [PF134, trans-2-Chloro-5-(2,2-dichloro-3-(3,5-dichlorophenyl)cyclopropane-1-carboxamido)-N-(4-(trifluoromethyl)thiazol-2-yl)benzamide]: the pest or weed control at 50 µg/cm2 in experiment [1] (setting [5]) and in experiment [2] (setting [6]) was 50 to 100% each time.
Regarding `O=C(Nc1ccc(NC(=O)C2(C(F)(F)F)CC2)cc1)c1cc(NC(=O)[C@H]2[C@H](c3cc(Cl)cc(Cl)c3)C2(Cl)Cl)ccc1Cl` (relative stereo) [PF162, trans-2-Chloro-5-(2,2-dichloro-3-(3,5-dichlorophenyl)cyclopropane-1-carboxamido)-N-(4-(1-(trifluoromethyl)cyclopropane-1-carboxamido)phenyl)benzamide], the pest or weed control at 50 µg/cm2 in experiment [1] (setting [5]) and in experiment [2] (setting [6]) was 50 to 100% in each case.

Source of the values: patent US10219516B2, “Molecules having pesticidal utility, and intermediates, compositions, and processes, related thereto” (priority 2015, dated 2019).
